# Measured values: publication PMC10011747, “Targeting androgen receptor and the variants by an orally bioavailable Proteolysis Targeting Chimeras compound in castration resistant prostate cancer” (eBioMedicine, 2023)
# Legend:
# Format in all cases: cell-based, human
# full-length AR = test: AR degradation by western blot in prostate cancer cell lines; conditions: 24 h treatment; LNCaP, CWR22Rv1, VCaP
# Protocol: To obtain total lysates, cells were lysed in RIPA buffer (50 mM Tris–HCl pH 8.0, 150 mM NaCl, 1% NP-40, 0.5% Na-deoxycholate, 0.5% SDS plus protease inhibitors). The lysates were resolved by SDS-polyacrylamide gel electrophoresis, and the protein expression was analyzed by western blotting using primary antibodies against AR (Millipore Cat# 06-680, RRID:AB_310214), AR-V7 (RevMAb Biosciences Cat# 31-1109-00, RRID:AB_2716436), GAPDH (Cell Signaling Technology Cat# 2118, RRID:AB_561053) and Actin (Sigma–Aldrich Cat# A5441, RRID:AB_476744). pLenti4/TO/Flag-AR or pLenti4/TO/Flag-TC-AR plasmid was co-transfected with HA-ubiquitin plasmid into 293T cells. 24 h after transfection, the cells were treated with 10 μM of the PROTAC compounds for 16 h, followed by 4-h treatment of 5 μM MG132. The cells were lysed with lysis buffer (50 mM Tris–HCl pH7.5, 150 mM NaCl, 0. 5% Triton X-100, 10% glycerol, 1 mM EDTA plus protease inhibitors) containing 1 ng/mL of N-ethylmaleimide, followed by immunoprecipitation with anti-Flag M2 (Sigma–Aldrich Cat# F3165, RRID:AB_259529) antibody. The ubiquitinated AR was then detected by western blotting using anti-HA (Sigma–Aldrich Cat# H3663, RRID:AB_262051) antibody.
# Fig. 1 PROTAC-based AR degraders ITRI-90, ITRI-125 and ITRI-126 reduce AR and AR-V7 proteins in prostate cancer cell lines. (a) Chemical structure of the PROTAC AR degraders. (b) Representative western blots of AR protein levels in LNCaP, CWR22Rv1 and VCaP cells treated with the PROTAC degraders for 24 h. AR was detected by N-terminal antibody which also detects C-terminal truncated AR-V(ΔLBD) in CWR22Rv1 cells. AR-V7 specific antibody was used for AR-V7 detection. 4%–12% gradient gel was used to separate different species of AR-V(ΔLBD) near 75 kDa in CWR22Rv1 cell lysates. DC50 indicating the concentration required to achieve 50% degradation, was calculated based on normalized full-length AR and AR-V7 band intensity. Dmax is the maximum degradation achieved at 20 μM compound treatment. TEXT PRINTED IN THE PICTURE: (a) ITRI-90: AR DC50 (μM) LNCaP: 2.12 ± 0.93; AR DC50 (μM) CWR22Rv1: 5.73 ± 2.28; AR DC50 (μM) VCaP: 8.67 ± 4.87; AR-V7 DC50 (μM) CWR22Rv1: 4.72 ± 2.52; AR-V7 DC50 (μM) VCaP: 0.29 ± 0.15; AR Dmax (%) LNCaP: 88; AR Dmax (%) CWR22Rv1: 98; AR Dmax (%) VCaP: 90; AR-V7 Dmax (%) CWR22Rv1: 100; AR-V7 Dmax (%) VCaP: 63 | (a) ITRI-125: AR DC50 (μM) LNCaP: 6.10 ± 4.43; AR DC50 (μM) CWR22Rv1: 6.64 ± 1.87; AR DC50 (μM) VCaP: 9.05 ± 3.75; AR-V7 DC50 (μM) CWR22Rv1: 1.89 ± 1.06; AR-V7 DC50 (μM) VCaP: 0.52 ± 0.37; AR Dmax (%) LNCaP: 71; AR Dmax (%) CWR22Rv1: 96; AR Dmax (%) VCaP: 85; AR-V7 Dmax (%) CWR22Rv1: 99; AR-V7 Dmax (%) VCaP: 67 | (a) ITRI-126: AR DC50 (μM) LNCaP: 3.41 ± 3.13; AR DC50 (μM) CWR22Rv1: 0.11 ± 0.02; AR DC50 (μM) VCaP: 0.851 ± 0.43; AR-V7 DC50 (μM) CWR22Rv1: 0.011 ± 0.003; AR-V7 DC50 (μM) VCaP: 0.43 ± 0.19; AR Dmax (%) LNCaP: 99; AR Dmax (%) CWR22Rv1: 74; AR Dmax (%) VCaP: 94; AR-V7 Dmax (%) CWR22Rv1: 91; AR-V7 Dmax (%) VCaP: 82
# VCaP cells = test: MTT proliferation, VCaP with enzalutamide; conditions: 20 μM enzalutamide, with or without 10 μM PROTAC, up to 8 days
# Protocol: Cells were seeded in triplicate in 96-well plates 1 day prior to drug treatment for all assays. For viability test and IC50 assessment, the alamarBlue™ Cell Viability Reagent (Thermo Fisher Scientific) was added to cells 7 days after PROTAC treatment, followed by fluorescence detection as the manufacturer instructed. The IC50 was calculated by dose-inhibition regression. For proliferation monitoring, 2, 4, 6 and 8 days after PROTAC treatment (day 0), viable cells were detected by MTT Cell Proliferation Kit I (Sigma–Aldrich) according to the manufacturer's instructions. Cellular caspase activity was measured by Caspase-Glo 3/7 Assay System (Promega) 1 or 2 days after the drug treatment.
# Fig. 6 AR degraders effectively diminish enzalutamide-induced AR-V expression and inhibit enzalutamide-resistant cell growth. (a) VCaP cells were treated with 20 μM enzalutamide (Enz) for 2 days, followed by one-day treatment of mock or 10 μM PROTAC. Full-length AR and AR-V(ΔLBD) was detected by N-terminal AR antibody (top) or AR-V7 specific antibody (middle). […] Cell proliferation was detected by MTT every 2 days after PROTAC treatment, up to 8 days. […] (c) AR protein levels in C4-2B and C4-2B/Enz^R cells treated with mock or 10 μM PROTAC compounds for 1 day were detected by anti-N-terminal-AR and anti-AR-V7 antibodies. […] Cell growth was monitored by MTT every 2 days up to 8 days. […]
# [1] = tested on: AR and AR-V7 target gene expression; test: qRT-PCR of AR and AR-V7 target genes; conditions: CWR22Rv1 cells, 24 h, 5 μM
# Protocol: TRIzol™ Reagent (Thermo Fisher Scientific) was used to isolate total RNA, and iScript™ cDNA Synthesis Kit (Bio-Rad, Hercules, CA, USA) was used for cDNA synthesis. The cDNA expression level of each gene was then quantified by the Bio-Rad CFX Real-Time PCR detection system using iTaq Universal SYBR Green Supermix (Bio-Rad) and primers listed in Table S1. All samples were tested in triplicate, and the expression levels were normalized against RPL13A and GAPDH cDNA levels using Bio-Rad CFX software.
Compound,AR protein expression (negative control degraders) (full-length AR),VCaP proliferation (MTT) (VCaP cells),expression of AR-V7 target genes [1]
"CN1C(=O)CCC(N2Cc3c(NC(=O)COCCCCOc4ccc(C5CCN(C6=Nn7c(nnc7C(F)(F)F)CC6)CC5)cc4)cccc3C2=O)C1=O (stereo not shown) [ITRI-126 inactive, N-(2-(1-methyl-2,6-dioxopiperidin-3-yl)-1-oxoisoindolin-4-yl)-2-(4-(4-(1-(3-(trifluoromethyl)-7,8-dihydro-[1,2,4]triazolo[4,3-b]pyridazin-6-yl)piperidin-4-yl)phenoxy)butoxy)acetamide]",did not inhibit the AR protein expression,,
"Cc1ncsc1-c1ccc(CNC(=O)[C@@H]2C[C@H](O)CN2C(=O)[C@@H](NC(=O)COCCCCOc2ccc(C3CCN(C4=Nn5c(nnc5C(F)(F)F)CC4)CC3)cc2)C(C)(C)C)cc1 [ITRI-90 inactive, (2S,4S)-1-((S)-3,3-dimethyl-2-(2-(4-(4-(1-(3-(trifluoromethyl)-7,8-dihydro-[1,2,4]triazolo[4,3-b]pyridazin-6-yl)piperidin-4-yl)phenoxy)butoxy)acetamido)butanoyl)-4-hydroxy-N-(4-(4-methylthiazol-5-yl)benzyl)pyrrolidine-2-carboxamide]",did not inhibit the AR protein expression,,
CNC(=O)c1ccc(N2C(=S)N(c3ccc(C#N)c(C(F)(F)F)c3)C(=O)C2(C)C)cc1F [enzalutamide],,modestly inhibits VCaP proliferation,specifically inhibited by the degraders but not enzalutamide
